Experimental findings from paper PMC11821233, “Impact of Bioactive Ingredients on the Fecal Excretion of Aflatoxin B1 and Ochratoxin A in Wistar Rats” (Molecules, 2025) are described below.

Values joined by “and” are separate entries in the source; they are usually repeats but may differ in a detail not shown here. Equal values may be shown once. Read-outs that look alike come from different tables or passages of the source.

Test in series [1]: not given
The source holds these as a separate data set.

Where [2] appears, read: females, feces collected in the fourth week of the in vivo study, label = diet group, LOD 0.1 µg/kg.
[3] abbreviates: males, feces collected in the fourth week of the in vivo study, label = diet group, LOD 0.1 µg/kg.

As to `C[C@@H]1Cc2c(Cl)cc(C(=O)N[C@@H](Cc3ccccc3)C(=O)O)c(O)c2C(=O)O1` [OTA, ochratoxin A], the “Concentration of OTA in rat feces” value is, setting by setting: under setting [2], 933 ± 512 µg mycotoxin/kg dry feces; under setting [3], 1729 ± 712 µg mycotoxin/kg dry feces. For the same compound, the “Concentration of AFB1 in rat feces” value in series [1] (setting [2]) and in series [1] (setting [3]) was “<LOD” throughout.

Take aflatoxin B1 [AFB1]: the “Concentration of OTA in rat feces” value (rat, in vivo) is listed as “<LOD”. The “Concentration of AFB1 in rat feces” value in series [1] (rat, in vivo) is 52 ± 61 µg mycotoxin/kg dry feces and 91 ± 77 µg mycotoxin/kg dry feces.
